Laboratory results as given in ChEMBL document CHEMBL5357056, “Precursor-Directed Biosynthesis of Antialgal Fluorinated Bacillamide Derivatives in Bacillus atrophaeus” (J Nat Prod, 2024).

How the values were obtained:
Karenia brevis = assay: Anti-phytoplankton activity against Karenia brevis assessed as change in chlorophyll a level measured after 72 hrs by fluorescence based analysis; format: functional, organism-based
[1] = Anti-phytoplankton activity against Skeletonema grethae assessed as reduction in chlorophyll a level measured after 72 hrs by fluorescence based analysis; format: functional, organism-based

SMILES: N#Cc1c(-c2ccc(Cl)cc2)[nH]c(C(F)(F)F)c1Br
- IC50 (Karenia brevis): 1.35 µM
- IC50 [1]: 13.1 µM

SMILES: CC(=O)NCCc1c[nH]c2ccccc12
- IC50 (Karenia brevis): > 200 µM
- IC50 [1]: > 200 µM

SMILES: CC(=O)NCCc1c[nH]c2cccc(F)c12
- IC50 (Karenia brevis): > 200 µM
- IC50 [1]: > 200 µM

SMILES: CC(=O)N[C@H](C)c1nc(C(=O)NCCc2c[nH]c3cccc(F)c23)cs1
- IC50 (Karenia brevis): > 200 µM
- IC50 [1]: > 200 µM

SMILES: CC(=O)N[C@H](C)c1nc(C(=O)NCCc2c[nH]c3cc(F)ccc23)cs1
- IC50 (Karenia brevis): 28.7 µM
- IC50 [1]: > 200 µM

SMILES: CC(=O)c1nc(C(=O)NCCc2c[nH]c3cccc(F)c23)cs1
- IC50 (Karenia brevis): > 200 µM
- IC50 [1]: > 200 µM

SMILES: CC(=O)c1nc(C(=O)NCCc2c[nH]c3ccc(F)cc23)cs1
- IC50 (Karenia brevis): 186 µM
- IC50 [1]: > 200 µM

SMILES: CC(=O)c1nc(C(=O)NCCc2c[nH]c3cc(F)ccc23)cs1
- IC50 (Karenia brevis): 107 µM
- IC50 [1]: > 200 µM

SMILES: CC(=O)N[C@H](C)c1nc(C(=O)NCCc2c[nH]c3ccc(F)cc23)cs1
- IC50 (Karenia brevis): > 200 µM
- IC50 [1]: > 200 µM

SMILES: CC(=O)c1nc(C(=O)NCCc2c[nH]c3ccccc23)cs1 [BACILLAMIDE A]
- IC50 (Karenia brevis): > 200 µM
- IC50 [1]: > 200 µM

SMILES: CC(=O)N[C@H](C)c1nc(C(=O)NCCc2c[nH]c3ccccc23)cs1 [BACILLAMIDE C]
- IC50 (Karenia brevis): > 200 µM
- IC50 [1]: > 200 µM

SMILES: C[C@@H]1C[C@@H]([C@H](O)CC2CC(=O)NC(=O)C2)C(=O)[C@@H](C)C1 [CYCLOHEXIMIDE]
- IC50 (Karenia brevis): 0.55 µM
- IC50 [1]: 0.5 µM
